Laboratory results: article PMC10650955, “α-Aminophosphonate inhibitors of metallo-β-lactamases NDM-1 and VIM-2” (RSC Medicinal Chemistry, 2023)
Where a name gives a salt, the structure may show the parent alone.

Columns and labels:
NDM-1 = molecular target: T1, NDM-1 (Klebsiella pneumoniae, UniProt C7C422); experiment: Dose rate inhibition studies for IC50 determination, NDM-1 enzymatic assay; format: biochemical; details: Enzyme IC50 NDM-1, 10 nM NDM-1, 100 μM ZnCl2, imipenem substrate, inhibitor 0-800 μM, 3 parallel measurements; N.I. = no enzyme inhibitory activity observed
T1 construct: made in house
T1 sequence (C7C422 29-270 limits assumed): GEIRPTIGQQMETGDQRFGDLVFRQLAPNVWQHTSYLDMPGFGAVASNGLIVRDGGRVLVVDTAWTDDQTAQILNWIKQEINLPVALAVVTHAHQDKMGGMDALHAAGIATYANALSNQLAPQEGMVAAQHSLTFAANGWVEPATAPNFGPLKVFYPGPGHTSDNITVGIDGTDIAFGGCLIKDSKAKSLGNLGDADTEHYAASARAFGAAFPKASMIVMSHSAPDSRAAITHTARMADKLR
Experimental: (§1) The […] synthesized compounds 5a–l were tested for their inhibitory activities against NDM-1, VIM-2 (Table 1), and GIM-1 in an in vitro enzymatic assay (ESI ^†).[41] The inhibitory activity was measured using enzyme concentrations of 0.1 nM VIM-2, 10 nM NDM-1 or 1 nM GIM-1, with an excess Zn(II) (100 μM, see Experimental methods), with inhibitor compounds with concentrations from 0 to 800 μM. Each data point was measured in triplicates. […] This is in line with previous reports.[42,43]
(§2) A 100 μl solution with buffer (50 mM HEPES (pH 7.2), 100 μM ZnCl2, 2.5% DMSO), purified enzyme (0.1 nM VIM-2, 10 nM NDM-1 or 1 nM GIM-1) and 800–0 μM inhibitor was incubated in a 96 well plate at 25 °C for 5 min. In addition, the enzyme buffer contained 400 μg ml^−1 bovine serum albumin (BSA) to prevent protein unfolding and loss of activity due to low concentrations.[67,68] 100 μM of the reporter substrate nitrocefin (VIM-2, GIM-1) or imipenem (NDM-1) was added to the enzyme–inhibitor solution and the increase in absorbance at 482 nm (nitrocefin) or 300 nm (imipenem) was recorded on a Spectramax M4 spectrophotometer (Molecular Devices). Each data point was performed in triplicates and the initial velocity for each inhibitor concentration was analyzed by a log [inhibitor] vs. response curve fitting to calculate IC50 in GraphPad Prism 9.2 software.

VIM-2 = molecular target: T2, VIM-2 (Escherichia coli, UniProt Q5U7L7); experiment: Dose rate inhibition studies for IC50 determination, VIM-2 enzymatic assay; format: biochemical; details: Enzyme IC50 VIM-2, 0.1 nM VIM-2, 100 μM ZnCl2, nitrocefin substrate, inhibitor 0-800 μM, 3 parallel measurements; N.I. = no enzyme inhibitory activity observed
T2 construct: made in house
Experimental: as §1, §2

15N-labelled NDM-1 = molecular target: T3, 15N-labelled NDM-1 (Klebsiella pneumoniae, UniProt C7C422); experiment: 1H,15N HSQC NMR chemical shift perturbation titration, NDM-1; format: binding
T3 construct: made in house
T3 sequence (C7C422 29-270 limits assumed): as above
Experimental: (§3) Solution NMR spectroscopy is a powerful tool to assess protein–ligand interactions under close to physiological conditions.[47] We, therefore, performed NMR chemical shift perturbation (CSP, for details, see section S8, ESI ^†) experiments to identify the amino acid residues of NDM-1 and VIM-2 that are involved in inhibitor binding, making use of the previously published protein assignments.[48,49] Titrations were conducted using ^15N-labelled proteins with 0, 0.5, 1, 2, 4, 8, and 16 equiv. of 5 inhibitors for NDM-1 and of 7 inhibitors for VIM-2.
(§4) For the titrations, ^15N-labelled NDM-1 and ^15N-labelled VIM-2 (250 μM), and titrated ligands (0.5 equiv. in 1 μL) were prepared in the same buffer as the protein (20 mM KPO4, 0.1 mM ZnCl2, pH 7.0 with 10% D2O and 2.5% DMSO-d6). ^1H,^15N HSQC spectra were acquired with 128 × 1024 complex points (F1 × F2) and spectral width of 9090 × 2740 Hz on ^15N-labeled NDM-1/VIM-2 and with every titration step up to 1 : 16 ratio between protein : ligand (0, 0.5, 1, 2, 4, 8, and 16 equiv. of ligand). All experiments were recorded on a Bruker 600 MHz spectrometer at 310 K equipped with a 5 mm TCI cryogenic probe. The NMR data were processed on the MestReNova software with the Mnova Binding plugin. The weighted average chemical shift perturbations (CSP) for the backbone amides were calculated from the observed chemical shift differences in the proton and nitrogen dimensions using the equation (chemical shift scaling factors: FH = 1, FN = 0.156) CSP = Δδ1H,15N = [drawing 13] .
(§5) 7. Chemical shift perturbation histograms
(§6) Chemical shift perturbation was calculated according equation (1) 2
(§7) CSP = Δδ(1H,15N) = √(Δδ1H2 + (1⁄R × Δδ15N2) Rscale = 6.5 (1)
(§8) Where Δδ1H is the chemical shift change for proton dimension, Δδ15N is the chemical shift change for nitrogen dimension, Rscale is a
(§9) The chemical shift perturbations (CSP) were classified as significant (SSP) when the observed Δδ(1H,15N) was greater than the population
(§10) mean plus the standard deviation (µ+1σ) – solid line; (µ+2σ) – dashed line, and (µ+3σ) – dashed line.
(§11) Further on, Kd was calculated according: 3
(§12) ([P]+[L]+Kd)− √([P]+[L]+Kd)2−4[P][L]
(§13) ΔδmaxΔδobs = Δδmax 2[P] (2)
(§14) Where Kd is the dissociation constant, [P] and [L] are protein and ligand concentrations, respectively. Δδmax were estimated in
(§15) MestReNova by extrapolation of the obser ved chemical shift differences Δδobs.

15N-labelled VIM-2 = molecular target: T4, 15N-labelled VIM-2 (Escherichia coli, UniProt Q5U7L7); experiment: 1H,15N HSQC NMR chemical shift perturbation titration, VIM-2; format: binding; details: VIM-2 Kd, 0-16 equiv. ligand, pH 7.0, 310 K
T4 construct: made in house
Experimental: as §3, §4, §5, §6, §7, §8, §9, §10, §11, §12, §13, §14, §15

[1] = Estimated binding constant (Kd), residue 070F, Table S5, per-residue fit, NDM-1 070F
[2] = Estimated binding constant (Kd), residue 108E, Table S5, per-residue fit, NDM-1 108E
[3] = Estimated binding constant (Kd), residue 119T, Table S5, per-residue fit, NDM-1 119T
[4] = Estimated binding constant (Kd), residue 124D, Table S5, per-residue fit, NDM-1 124D
[5] = Estimated binding constant (Kd), residue 127G, Table S5, per-residue fit, NDM-1 127G
[6] = Estimated binding constant (Kd), residue 152E, Table S5, per-residue fit, NDM-1 152E
[7] = Estimated binding constant (Kd), residue 159H, Table S5, per-residue fit, NDM-1 159H
[8] = Estimated binding constant (Kd), residue 160S, Table S5, per-residue fit, NDM-1 160S
[9] = Estimated binding constant (Kd), residue 194I, Table S5, per-residue fit, NDM-1 194I
[10] = Estimated binding constant (Kd), residue 197G, Table S5, per-residue fit, NDM-1 197G
[11] = Estimated binding constant (Kd), residue 205F, Table S5, per-residue fit, NDM-1 205F
[12] = Estimated binding constant (Kd), residue 206G, Table S5, per-residue fit, NDM-1 206G
[13] = Estimated binding constant (Kd), residue 214K, Table S5, per-residue fit, NDM-1 214K
[14] = Estimated binding constant (Kd), residue 217S, Table S5, per-residue fit, NDM-1 217S
[15] = Estimated binding constant (Kd), residue 228H, Table S5, per-residue fit, NDM-1 228H
[16] = Estimated binding constant (Kd), residue 229Y, Table S5, per-residue fit, NDM-1 229Y
[17] = Estimated binding constant (Kd), residue 230A, Table S5, per-residue fit, NDM-1 230A
[18] = Estimated binding constant (Kd), residue 232S, Table S5, per-residue fit, NDM-1 232S
[19] = Estimated binding constant (Kd), residue 248M, Table S5, per-residue fit, NDM-1 248M
[20] = Estimated binding constant (Kd), residue 249S, Table S5, per-residue fit, NDM-1 249S
[21] = Estimated binding constant (Kd), residue 251S, Table S5, per-residue fit, NDM-1 251S
[22] = Estimated binding constant (Kd), residue 254D, Table S5, per-residue fit, NDM-1 254D
[23] = Estimated binding constant (Kd), residue 255S, Table S5, per-residue fit, NDM-1 255S
[24] = NDM-1 Kd, NMR chemical shift perturbation, 0-16 equiv. ligand, pH 7.0, 310 K

For `O=C(Cc1cccs1)NC(C1CCCCN1)P(=O)(O)O` (stereo not drawn) [Compound 5i-2, (Piperidin-2-yl(2-(thiophen-2-yl)acetamido)methyl)phos-phonic acid hydrochloride], which IC50 (NDM-1) is on record?
The IC50 was 0.271 ± 0.034 mM.

And the IC50 (VIM-2)?
Its IC50 is 0.328 ± 0.116 mM.

And the Kd (15N-labelled NDM-1; [1])?
The Kd was 4.9 mM.

What about the Kd (15N-labelled NDM-1; [2]) of the same compound?
The Kd was 2.03 mM.

And the Kd (15N-labelled NDM-1; [3])?
The Kd was 26.4 mM.

What about the Kd (15N-labelled NDM-1; [4]) of the same compound?
The Kd was 14.1 mM.

What about the Kd (15N-labelled NDM-1; [5]) of the same compound?
The Kd was 1.76 mM.

And the Kd (15N-labelled NDM-1; [6])?
Its Kd is 1.18 mM.

And the Kd (15N-labelled NDM-1; [7])?
Its Kd is 8.3 mM.

And the Kd (15N-labelled NDM-1; [8])?
Its Kd is 17.6 mM.

What about the Kd (15N-labelled NDM-1; [9]) of the same compound?
The Kd was 2.49 mM.

What about the Kd (15N-labelled NDM-1; [10]) of the same compound?
The Kd was 15.2 mM.

And the Kd (15N-labelled NDM-1; [11])?
Its Kd is 6.84 mM.

And the Kd (15N-labelled NDM-1; [12])?
Its Kd is 6.81 mM.

And the Kd (15N-labelled NDM-1; Estimated binding constant (Kd), residue 211K, Table S5, per-residue fit, NDM-1 211K)?
Its Kd is 17.1 mM.

What about the Kd (15N-labelled NDM-1; [13]) of the same compound?
The Kd was 0.78 mM.

And the Kd (15N-labelled NDM-1; [14])?
The Kd was 16.4 mM.

And the Kd (15N-labelled NDM-1; [15])?
The Kd was 10.1 mM.

And the Kd (15N-labelled NDM-1; [16])?
Its Kd is 2.3 mM.

What about the Kd (15N-labelled NDM-1; [17]) of the same compound?
Its Kd is 2.71 mM.

And the Kd (15N-labelled NDM-1; [18])?
The Kd was 5.57 mM.

And the Kd (15N-labelled NDM-1; [19])?
The Kd was 2.58 mM.

What about the Kd (15N-labelled NDM-1; [20]) of the same compound?
Its Kd is 8.45 mM.

And the Kd (15N-labelled NDM-1; [21])?
Its Kd is 3.38 mM.

What about the Kd (15N-labelled NDM-1; [22]) of the same compound?
Its Kd is 5.01 mM.

What about the Kd (15N-labelled NDM-1; [23]) of the same compound?
The Kd was 1.66 mM.

What about the Kd (15N-labelled NDM-1; Estimated binding constant (Kd), residue 263A_266A, Table S5, per-residue fit, NDM-1 263A_266A) of the same compound?
Its Kd is 0.69 mM.

What about the Kd (15N-labelled NDM-1; [24]) of the same compound?
Its Kd is 1.4 ± 0.1 mM.

And the Kd (15N-labelled VIM-2)?
The Kd was 1.1 ± 0.1 mM.

What does the source list for `O=C(Cc1ccsc1)NC(C1CCCCN1)P(=O)(O)O` (stereo not drawn) [Compound 5j-1, (Piperidin-2-yl(2-(thiophen-3-yl)acetamido)methyl)phos-phonic acid hydrochloride]?
IC50 (NDM-1): 0.506 ± 0.333 mM; IC50 (VIM-2): 0.319 ± 0.069 mM; Kd (15N-labelled NDM-1; [1]): 2.54 mM; Kd (15N-labelled NDM-1; Estimated binding constant (Kd), residue 091T, Table S5, per-residue fit, NDM-1 091T): 2.11 mM; Kd (15N-labelled NDM-1; [2]): 3.54 mM; Kd (15N-labelled NDM-1; [3]): 7.97 mM; Kd (15N-labelled NDM-1; [4]): 12.4 mM; Kd (15N-labelled NDM-1; [5]): 12.4 mM; Kd (15N-labelled NDM-1; Estimated binding constant (Kd), residue 133H_225D, Table S5, per-residue fit, NDM-1 133H_225D): 1.42 mM; Kd (15N-labelled NDM-1; Estimated binding constant (Kd), residue 149A, Table S5, per-residue fit, NDM-1 149A): 3.18 mM; Kd (15N-labelled NDM-1; [6]): 32.9 mM; Kd (15N-labelled NDM-1; [7]): 8.39 mM; Kd (15N-labelled NDM-1; [8]): 15.7 mM; Kd (15N-labelled NDM-1; Estimated binding constant (Kd), residue 188G, Table S5, per-residue fit, NDM-1 188G): 6.63 mM; Kd (15N-labelled NDM-1; [9]): 6.1 mM; Kd (15N-labelled NDM-1; [10]): 3.05 mM; Kd (15N-labelled NDM-1; [11]): 8.41 mM; Kd (15N-labelled NDM-1; [12]): 7.72 mM; Kd (15N-labelled NDM-1; [13]): 1.96 mM; Kd (15N-labelled NDM-1; [14]): 8.15 mM; Kd (15N-labelled NDM-1; [15]): 4.94 mM; Kd (15N-labelled NDM-1; [16]): 1.31 mM; Kd (15N-labelled NDM-1; [17]): 8.81 mM; Kd (15N-labelled NDM-1; [18]): 21.3 mM; Kd (15N-labelled NDM-1; [19]): 8.64 mM; Kd (15N-labelled NDM-1; [20]): 34 mM; Kd (15N-labelled NDM-1; [21]): 12.3 mM; Kd (15N-labelled NDM-1; [22]): 9.29 mM; Kd (15N-labelled NDM-1; [23]): 18.6 mM; Kd (15N-labelled NDM-1; [24]): 2.2 ± 0.2 mM; Kd (15N-labelled VIM-2): 0.9 ± 0.1 mM
